What all share (assay type): physicochemical
Series [1] can be described thus: Intrinsic dissolution rate in pH 2.5 HCl/NaCl aqueous solution. Particulars: for Cumulative dissolution / IDR (intrinsic dissolution rate): pH 2.5 HCl/NaCl, 37° C.; for Cumulative dissolution: 0.5 cm^2 pellet; for IDR relative to that of Form I in WO2017002095A1: pH 2.5 HCl/NaCl solution; for IDR (intrinsic dissolution rate): slope over 0-45 minutes. Here is the method: Approximately 200 mg of Form A and Form I in WO2017002095A1 were added into the die, compressed at 10 kN and held for 1 minute to obtain a pellet having a surface area of 0.5 cm^2. The whole tool with the pellet was transferred to a dissolution apparatus to test the intrinsic dissolution rate. The slope (mg/min) was calculated according to the data within 0-45 minutes. Intrinsic dissolution rate (IDR, mg/min/cm^2) was further calculated according to the slope.
Approximately 200 mg of Form D and Form I in WO2017002095A1 were added into the die, compressed at 10 kN and held for 1 minute to obtain a pellet having a surface area of 0.5 cm^2. The whole tool with the pellet was transferred to a dissolution apparatus to test the intrinsic dissolution rate. The slope (mg/min) was calculated according to the data within 0-45 minutes. Intrinsic dissolution rate (IDR, mg/min/cm^2) was further calculated according to the slope.
Approximately 200 mg of Form F and Form I in WO2017002095A1 were added into the die, compressed at 10 kN and held for 1 minute to obtain a pellet having a surface area of 0.5 cm^2. The whole tool with the pellet was transferred to a dissolution apparatus to test the intrinsic dissolution. The slope (mg/min) was calculated according to the data within 0-45 minutes. Intrinsic dissolution rate (IDR, mg/min/cm^2) was further calculated according to the slope.
Approximately 200 mg of Form G and Form I in WO2017002095A1 were added into the die, compressed at 10 kN and held for 1 minute to obtain a pellet having a surface area of 0.5 cm^2. The whole tool with the pellet was transferred to a dissolution apparatus to test the intrinsic dissolution. The slope (mg/min) was calculated according to the data within 0-45 minutes. Intrinsic dissolution rate (IDR, mg/min/cm^2) was further calculated according to the slope.
Approximately 200 mg of Form CS15 and Form I in WO2017002095A1 were added into the die, compressed at 10 kN and held for 1 minute to obtain a pellet having a surface area of 0.5 cm^2. The whole tool with the pellet was transferred to a dissolution apparatus to test the intrinsic dissolution. The slope (mg/min) was calculated according to the data within 0-45 minutes. Intrinsic dissolution rate (IDR, mg/min/cm^2) was further calculated according to the slope.

Series [2] is described as follows: Hygroscopicity by dynamic vapor sorption (DVS). Conditions: 80% RH, 25° C.; for Hygroscopicity: Chinese Pharmacopoeia 2015 definition; for Weight gain: DVS. The procedure: Dynamic vapor sorption (DVS) was applied to test hygroscopicity of Form A with about 10 mg of sample. Weight changes at each relative humidity were recorded in a cycle of 0-95%-0 RH at 25° C.±1° C.
Description and definition of hygroscopicity (general notice 9103 drug hygroscopicity test guidelines in 2015 edition of Chinese Pharmacopoeia, test at 25° C.+/−1° C., 80% RH). • deliquescent: Sufficient water is absorbed to form a liquid; • very hygroscopic: Increase in mass is equal to or greater than 15 percent; • hygroscopic: Increase in mass is less than 15 percent and equal to or greater than 2 percent; • slightly hygroscopic: Increase in mass is less than 2 percent and equal to or greater than 0.2 percent. • non hygroscopic or almost non hygroscopic: Increase in mass is less than 0.2%.
Dynamic vapor sorption (DVS) was applied to test hygroscopicity of Form F with about 10 mg of sample. Weight changes at each relative humidity were recorded in a cycle of 0-95%-0 RH at 25° C.±1° C. DVS plot is substantially as depicted in FIG. 32, and XRPD patterns before and after DVS are compared in FIG. 33.
Description and definition of hygroscopicity (general notice 9103 drug hygroscopicity test guidelines in 2015 edition of Chinese Pharmacopoeia, test at 25° C. +/−1° C., 80% RH). • deliquescent: Sufficient water is absorbed to form a liquid; • very hygroscopic: Increase in mass is equal to or greater than 15 percent; • hygroscopic: Increase in mass is less than 15 percent and equal to or greater than 2 percent; • slightly hygroscopic: Increase in mass is less than 2 percent and equal to or greater than 0.2 percent. • non hygroscopic or almost non hygroscopic: Increase in mass is less than 0.2%.
Dynamic vapor sorption (DVS) was applied to test hygroscopicity of Form CS15 with about 10 mg of sample. Weight changes at each relative humidity were recorded in a cycle of 0-95%-0 RH at 25° C.±1° C. DVS plot is substantially as depicted in FIG. 38, and XRPD patterns before and after DVS are compared in FIG. 39.

The nature of series [3]: Flowability (compressibility index / Carr index). Conditions: for Flowability: by compressibility index; for Compressibility index: c=(ρf−ρ0)/ρf. The procedure:
Compressibility index or Carr index is usually utilized to evaluate the flowability of powder and granules during the drug product process. Compressibility index test method is as follows: a certain amount of powder was added into a measuring cylinder and bulk volume was recorded. Then the powder was tapped to make it in the tightest state and the tapped volume was recorded. The bulk density (ρ0) and tapped density (ρf) were calculated. Compressibility index was calculated according to c=(ρf−ρ0)/ρf.
Compressibility index or Carr index is usually utilized to evaluate the flowability of powder and granules during the drug product process. Compressibility index test method is as follows: a certain amount of powder was added into a measuring cylinder and bulk volume was recorded. Then the powder was tapped to make it in the tightest state and the tapped volume was recorded. The bulk density (ρ0), tapped density (ρf) were calculated and compressibility index was calculated according to c=(pf-po)/pf.
Compressibility index or Carr index is usually utilized to evaluate the flowability of powder and granules during the drug product process. Compressibility index test method is as follows: a certain amount of powder was added into a measuring cylinder and bulk volume was recorded. Then the powder was tapped to make it in the tightest state and the tapped volume was recorded. The bulk density (ρ0), tapped density (ρf) were calculated and compressibility index was calculated according to c=(ρf−ρ0)/ρf.

Regarding `CC#CC(=O)N1CCC[C@H]1c1nc(-c2ccc(C(=O)Nc3ccccn3)cc2)c2c(N)nccn12` [Form A, (S)-4-(8-amino-3-(1-(but-2-ynoyl)pyrrolidin-2-yl)imidazo[1,5-a]pyrazin-1-yl)-N-(pyridin-2-yl)benzamide], the Cumulative dissolution amounted to 0.00 mg in series [1] (0 min); 1.13 mg in series [1] (5 min); 2.42 mg in series [1] (10 min); 3.80 mg in series [1] (15 min); 4.73 mg in series [1] (20 min); 5.79 mg in series [1] (25 min). Moreover, the Cumulative dissolution in series [1] (30 min) is listed as 6.72 mg; in series [1] (35 min), 7.83 mg; in series [1] (45 min) it was 9.93 mg. Moreover, the “IDR relative to that of Form I in WO2017002095A1” value (shortened to “IDR relative to that of Form I”) in series [1] was 1.2 times. Also, in series [1], the “IDR (intrinsic dissolution rate)” value worked out at 0.4520 mg/min/cm^2. Also, in series [2], the Hygroscopicity result was “slightly hygroscopic (Increase in mass is less than 2 percent and equal to or greater than 0.2 percent)”. The same molecule returned a Weight gain in series [2] of 0.99%. Further, the “Bulk density (ρ0)” value in series [3] was 0.269 g/mL. For the same molecule, the “Tapped density (ρf)” value in series [3] is 0.303 g/mL. Moreover, in series [3], the Flowability entry was “Good (11-15)”. For the same molecule, in series [3], the Compressibility index turned out to be 11%.
Take `CC#CC(=O)N1CCC[C@H]1c1nc(-c2ccc(C(=O)Nc3ccccn3)cc2)c2c(N)nccn12` [Form CS15, (S)-4-(8-amino-3-(1-(but-2-ynoyl)pyrrolidin-2-yl)imidazo[1,5-a]pyrazin-1-yl)-N-(pyridin-2-yl)benzamide]: the Cumulative dissolution in series [1] (0 min) is on record as 0.00 mg; in series [1] (5 min) it was 1.06 mg; in series [1] (10 min), 2.34 mg; in series [1] (15 min), 4.20 mg; in series [1] (20 min), 5.60 mg; in series [1] (25 min) it was 7.89 mg. For the same molecule, the Cumulative dissolution in series [1] (30 min) was 8.86 mg; in series [1] (35 min), 10.60 mg; in series [1] (45 min) it was 12.41 mg. Also, the “IDR relative to that of Form I” value in series [1] is recorded as 1.6 times. Besides, the “IDR (intrinsic dissolution rate)” value in series [1] amounted to 0.5778 mg/min/cm^2. In addition, the Hygroscopicity entry in series [2] is “slightly hygroscopic (Increase in mass is less than 2 percent and equal to or greater than 0.2 percent)”. This molecule also yielded a Weight gain in series [2] of 1.78%.
As for `CC#CC(=O)N1CCC[C@H]1c1nc(-c2ccc(C(=O)Nc3ccccn3)cc2)c2c(N)nccn12` [Form F, (S)-4-(8-amino-3-(1-(but-2-ynoyl)pyrrolidin-2-yl)imidazo[1,5-a]pyrazin-1-yl)-N-(pyridin-2-yl)benzamide], the Cumulative dissolution in series [1] (0 min) was 0.00 mg; in series [1] (5 min), 1.31 mg; in series [1] (10 min), 2.47 mg; in series [1] (15 min), 3.99 mg; in series [1] (20 min), 5.30 mg; in series [1] (25 min), 6.50 mg. Further, the Cumulative dissolution in series [1] (30 min) was determined as 7.26 mg; in series [1] (35 min), 8.74 mg; in series [1] (45 min) it was 10.44 mg. Besides, the “IDR relative to that of Form I” value in series [1] was determined as 1.3 times. The “IDR (intrinsic dissolution rate)” value in series [1] is 0.4898 mg/min/cm^2. In addition, the Hygroscopicity entry in series [2] is on record as “non hygroscopic or almost non hygroscopic (Increase in mass is less than 0.2%)”. In series [2], this molecule gave a Weight gain of 0.09%. Further, the “Bulk density (ρ0)” value in series [3] turned out to be 0.185 g/mL. Moreover, in series [3], the “Tapped density (ρf)” value is reported as 0.216 g/mL. In addition, the Flowability result in series [3] is “Good (11-15)”. The same molecule had a Compressibility index in series [3] of 14%.
In the case of `CC#CC(=O)N1CCC[C@H]1c1nc(-c2ccc(C(=O)Nc3ccccn3)cc2)c2c(N)nccn12` [Form G, (S)-4-(8-amino-3-(1-(but-2-ynoyl)pyrrolidin-2-yl)imidazo[1,5-a]pyrazin-1-yl)-N-(pyridin-2-yl)benzamide], the Cumulative dissolution is 0.00 mg in series [1] (0 min); 1.28 mg in series [1] (5 min); 2.36 mg in series [1] (10 min); 3.68 mg in series [1] (15 min); 4.76 mg in series [1] (20 min); 5.51 mg in series [1] (25 min). For the same molecule, the results for the Cumulative dissolution in series [1] (30 min), in series [1] (35 min) and in series [1] (45 min) were 6.71 mg, 7.65 mg and 9.50 mg, respectively. Moreover, the “IDR relative to that of Form I” value in series [1] was found to be 1.2 times. Also, the “IDR (intrinsic dissolution rate)” value in series [1] turned out to be 0.4396 mg/min/cm^2. Moreover, the “Bulk density (ρ0)” value in series [3] turned out to be 0.443 g/mL. Further, the “Tapped density (ρf)” value in series [3] is 0.488 g/mL. The Flowability entry in series [3] is given as “Good (11-15)”. Moreover, the Compressibility index in series [3] amounted to 11%.

For the origin of these results see patent US11091494B2, “Crystal form of acalabrutinib and preparation method and use thereof” (Crystal Pharmaceutical (Suzhou) Co., Ltd., priority 2018, dated 2021).
